Test results reported in patent EP4043466B1, “PRC2 INHIBITORS” (Mirati Therapeutics, Inc., priority 2018, dated 2019).

What was measured:
[1] = target: purified human, His-tagged PRC2 complex (Homo sapiens, UniProt O75530+Q15910); experiment: Hot Spot HMT assay: inhibition of PRC2 enzymatic activity (transfer of tritiated methyl from SAM to core histone, filter binding); format: biochemical; conditions: Inhibition of PRC2-mediated enzymatic activity; 10 nM PRC2 complex, 0.05 mg/ml core histone H3, 1 uM 3H-SAM, 1 hr at 30°C
Sequence of purified human, His-tagged PRC2 complex (Q15910 whole entry): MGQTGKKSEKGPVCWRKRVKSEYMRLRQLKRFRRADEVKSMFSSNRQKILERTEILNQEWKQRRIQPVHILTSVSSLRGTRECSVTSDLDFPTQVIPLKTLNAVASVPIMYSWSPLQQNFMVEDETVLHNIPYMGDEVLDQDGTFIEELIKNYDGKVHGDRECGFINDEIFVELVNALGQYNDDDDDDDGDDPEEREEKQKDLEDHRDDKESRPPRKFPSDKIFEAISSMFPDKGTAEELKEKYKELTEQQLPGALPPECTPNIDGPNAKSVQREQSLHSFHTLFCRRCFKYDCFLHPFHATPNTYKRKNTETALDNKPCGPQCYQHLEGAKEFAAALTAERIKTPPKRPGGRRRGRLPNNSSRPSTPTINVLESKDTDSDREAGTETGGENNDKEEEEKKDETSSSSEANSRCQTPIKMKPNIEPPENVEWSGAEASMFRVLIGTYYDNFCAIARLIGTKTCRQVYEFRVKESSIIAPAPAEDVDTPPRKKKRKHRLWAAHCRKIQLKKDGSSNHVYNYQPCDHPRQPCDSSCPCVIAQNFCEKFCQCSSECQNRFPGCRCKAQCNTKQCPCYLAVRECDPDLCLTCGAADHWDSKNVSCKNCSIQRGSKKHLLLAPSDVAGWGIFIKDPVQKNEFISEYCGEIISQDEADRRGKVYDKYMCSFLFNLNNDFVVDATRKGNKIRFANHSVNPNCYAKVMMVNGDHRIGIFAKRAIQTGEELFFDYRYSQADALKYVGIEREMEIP
Sequence of purified human, His-tagged PRC2 complex (O75530 whole entry): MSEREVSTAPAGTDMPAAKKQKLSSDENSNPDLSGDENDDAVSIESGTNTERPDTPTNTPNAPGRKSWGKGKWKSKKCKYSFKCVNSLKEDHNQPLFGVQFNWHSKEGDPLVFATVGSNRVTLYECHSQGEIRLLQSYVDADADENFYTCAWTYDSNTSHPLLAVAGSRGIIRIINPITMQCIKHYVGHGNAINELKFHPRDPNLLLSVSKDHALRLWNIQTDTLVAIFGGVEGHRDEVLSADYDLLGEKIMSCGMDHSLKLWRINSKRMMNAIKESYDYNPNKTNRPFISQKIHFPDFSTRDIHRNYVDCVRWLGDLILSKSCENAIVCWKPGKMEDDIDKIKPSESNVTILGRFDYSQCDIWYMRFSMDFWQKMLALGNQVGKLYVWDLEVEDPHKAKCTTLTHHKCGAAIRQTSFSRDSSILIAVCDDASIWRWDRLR
Sequence of purified human, His-tagged PRC2 complex (Q15022 whole entry partner): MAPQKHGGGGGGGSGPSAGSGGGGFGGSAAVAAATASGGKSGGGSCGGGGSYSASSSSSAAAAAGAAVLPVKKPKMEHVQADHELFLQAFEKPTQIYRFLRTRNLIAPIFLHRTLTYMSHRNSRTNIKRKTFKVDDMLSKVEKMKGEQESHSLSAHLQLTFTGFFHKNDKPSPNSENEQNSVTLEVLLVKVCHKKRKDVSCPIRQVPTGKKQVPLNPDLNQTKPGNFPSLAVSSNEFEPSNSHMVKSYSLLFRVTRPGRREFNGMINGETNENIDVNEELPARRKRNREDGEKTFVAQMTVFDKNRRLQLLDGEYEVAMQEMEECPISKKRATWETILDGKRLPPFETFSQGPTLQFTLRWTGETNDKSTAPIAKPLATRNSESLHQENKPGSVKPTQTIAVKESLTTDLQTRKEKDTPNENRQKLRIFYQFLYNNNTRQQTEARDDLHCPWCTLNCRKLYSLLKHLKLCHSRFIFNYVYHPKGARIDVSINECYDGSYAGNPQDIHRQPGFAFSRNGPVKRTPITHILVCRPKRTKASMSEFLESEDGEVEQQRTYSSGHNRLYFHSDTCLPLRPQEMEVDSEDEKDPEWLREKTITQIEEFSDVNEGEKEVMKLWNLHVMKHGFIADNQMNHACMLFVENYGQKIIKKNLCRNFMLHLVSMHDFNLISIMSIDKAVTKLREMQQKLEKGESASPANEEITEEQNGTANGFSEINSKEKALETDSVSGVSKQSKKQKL
Sequence of purified human, His-tagged PRC2 complex (Q6ZN18 whole entry partner): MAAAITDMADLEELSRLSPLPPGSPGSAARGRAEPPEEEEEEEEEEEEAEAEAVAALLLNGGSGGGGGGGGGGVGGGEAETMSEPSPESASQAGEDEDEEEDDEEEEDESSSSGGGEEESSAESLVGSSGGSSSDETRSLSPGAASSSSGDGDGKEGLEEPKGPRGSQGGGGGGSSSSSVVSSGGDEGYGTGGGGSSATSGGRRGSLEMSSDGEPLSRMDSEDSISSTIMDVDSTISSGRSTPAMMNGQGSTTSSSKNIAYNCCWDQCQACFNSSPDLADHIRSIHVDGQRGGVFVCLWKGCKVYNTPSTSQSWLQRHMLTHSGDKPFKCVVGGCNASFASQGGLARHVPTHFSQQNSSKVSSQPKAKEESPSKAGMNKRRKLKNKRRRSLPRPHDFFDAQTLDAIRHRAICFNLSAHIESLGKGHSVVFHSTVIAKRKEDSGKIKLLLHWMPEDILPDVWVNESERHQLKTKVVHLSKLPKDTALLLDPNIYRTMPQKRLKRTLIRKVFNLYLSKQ
Sequence of purified human, His-tagged PRC2 complex (Q09028 whole entry partner): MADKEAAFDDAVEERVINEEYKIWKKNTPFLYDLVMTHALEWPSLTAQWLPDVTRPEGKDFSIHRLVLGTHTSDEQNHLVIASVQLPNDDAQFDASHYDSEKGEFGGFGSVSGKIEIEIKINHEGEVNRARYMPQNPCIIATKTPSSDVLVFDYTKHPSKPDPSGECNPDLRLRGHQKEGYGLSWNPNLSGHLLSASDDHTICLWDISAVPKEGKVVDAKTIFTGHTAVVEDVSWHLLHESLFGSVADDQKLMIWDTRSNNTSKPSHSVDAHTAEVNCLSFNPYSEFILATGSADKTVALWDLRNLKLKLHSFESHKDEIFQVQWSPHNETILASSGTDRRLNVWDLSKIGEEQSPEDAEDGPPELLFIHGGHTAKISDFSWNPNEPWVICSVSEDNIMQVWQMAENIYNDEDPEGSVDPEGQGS
Outline: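 Serial compound dilutions starting at 1.0 µM were pre-incubated 20 min at 30°C with 10 nM complex (His-EZH2, Flag-EED, His-SUZ12, His-AEBP2, His-RbAp48) and 0.05 mg/ml core H3. Reaction ran 1 hr at 30°C after adding 1 uM [3H]-SAM; scintillation counting followed filtration.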

[2] = tested on: PRC2-mediated histone H3 methylation; experiment: Tri-Methyl Histone H3 (Lys 27) Sandwich ELISA in Pfeiffer cells: inhibition of PRC2-mediated histone H3 methylation; format: cell-based, human; conditions: Homo sapiens; Inhibition of EZH2-mediated histone H3 trimethylation; Pfeiffer cells (EZH2 A677G), 96 hours incubation
Outline: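 Pfeiffer DLBCL cells (EZH2 A677G mutant) treated with 3-fold serial dilutions, 1µM to 0.15 nM final, for 96 hours at 37°C. Acid (0.4M HCl) histone extracts, neutralized, assayed by H3K27me3 sandwich ELISA with HRP/TMB read at 450 nm.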

Karpas 422 cells = experiment: Karpas 422 cell viability, CTG (Cell Titre Glo) assay; format: cell-based, human; conditions: Homo sapiens; Inhibition of proliferation of Karpas 422 cells (EZH2 Y641N); viability measured Day 4, Day 7 or Day 11, time point of the tabulated values not stated
Outline: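 CellTiter-Glo viability IC50s taken at Day 4, Day 7 and Day 11 of continuous compound exposure (3-fold series, 10µM top, 1.5nM lowest) in RPMI/20% FBS at 37 °C. Y641N-mutant EZH2 lymphoma line seeded at 1000 cells per well; medium and compound replaced on Day 7 for Day 11 read.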

Structure (SMILES)	IC50 [1] [µM]	IC50 [2] [µM]	IC50 (Karpas 422 cells) [µM]
Cc1cc(CN(C)C)ccc1-c1cnc(NCc2c(F)ccc3c2C(O)CO3)n2cc(C#N)nc12 (stereo not drawn) [Example 207, 8-(4-((dimethylamino)methyl)-2-methylphenyl)-5-(((5-fluoro-3-hydroxy-2,3-dihydrobenzofuran-4-yl)methyl)amino)imidazo[1,2-c]pyrimidine-2-carbonitrile]	< 0.1	≤ 0.1	≤ 0.25
CNC(=O)c1cc(-c2cnc(NCc3c(F)ccc4c3CCO4)n3cc(C#N)nc23)n(C)n1 [Example 208, 5-(2-cyano-5-(((5-fluoro-2,3-dihydrobenzofuran-4-yl)methyl)amino)imidazo[1,2-c]pyrimidin-8-yl)-N, 1-dimethyl-1H-pyrazole-3-carboxamide]	< 0.1	0.1 to 0.5	≤ 0.25
Cn1nc(C#N)cc1-c1cnc(NCc2c(F)ccc3c2CCO3)n2cc(C#N)nc12 [Example 212, 8-(3-cyano-1-methyl-1H-pyrazol-5-yl)-5-(((5-fluoro-2,3-dihydrobenzofuran-4-yl)methyl)amino)imidazo[1,2-c]pyrimidine-2-carbonitrile]	< 0.1	≤ 0.1	≤ 0.25
N#Cc1cn2c(NCc3c(F)ccc4c3CCO4)ncc(-c3ccc(C(=O)O)nc3)c2n1 [Example 215, 5-(2-cyano-5-(((5-fluoro-2,3-dihydrobenzofuran-4-yl)methyl)amino)imidazo[1,2-c]pyrimidin-8-yl)picolinic acid]	< 0.1	> 0.5	> 0.5
CN(C)CCc1cccc(-c2cnc(NCc3c(F)ccc4c3CCO4)n3cc(C#N)nc23)c1 [Example 217, 8-(3-(2-(dimethylamino)ethyl)phenyl)-5-(((5-fluoro-2,3-dihydrobenzofuran-4-yl)methyl)amino)imidazo[1,2-c]pyrimidine-2-carbonitrile]	< 0.1	0.1 to 0.5	≤ 0.25
N#Cc1cn2c(NCc3c(F)ccc4c3CCO4)ncc(-c3cc[nH]c(=O)c3)c2n1 [Example 218, 5-(((5-fluoro-2,3-dihydrobenzofuran-4-yl)methyl)amino)-8-(2-oxo-1,2-dihydropyridin-4-yl)imidazo[1,2-c]pyrimidine-2-carbonitrile]	< 0.1	0.1 to 0.5	0.25 to 0.5
N#Cc1cn2c(NCc3c(F)ccc4c3CCO4)ncc(-c3ccc([C@@H]4CCCN4)cc3)c2n1 [Example 219, (S)-5-(((5-fluoro-2,3-dihydrobenzofuran-4-yl)methyl)amino)-8-(4-(pyrrolidin-2-yl)phenyl)imidazo[1,2-c]pyrimidine-2-carbonitrile]	< 0.1	0.1 to 0.5	≤ 0.25
N#Cc1cn2c(NCc3c(F)ccc4c3CCO4)ncc(-c3ccc([C@H]4CCCN4)cc3)c2n1 [Example 220, (R)-5-(((5-fluoro-2,3-dihydrobenzofuran-4-yl)methyl)amino)-8-(4-(pyrrolidin-2-yl)phenyl)imidazo[1,2-c]pyrimidine-2-carbonitrile]	0.1 to 0.5	0.1 to 0.5	≤ 0.25
N#Cc1cn2c(NCc3c(F)ccc4c3CCO4)ncc(-c3ccc(C4CC(=O)N4)cc3)c2n1 (stereo not drawn) [Example 222, 5-(((5-fluoro-2,3-dihydrobenzofuran-4-yl)methyl)amino)-8-(4-(4-oxoazetidin-2-yl)phenyl)imidazo[1,2-c]pyrimidine-2-carbonitrile]	< 0.1	≤ 0.1	≤ 0.25
[2H]C1Oc2ccc(F)c(C([2H])([2H])Nc3ncc(-c4ccc(CN(C)C)cc4C)c4nc(C#N)cn34)c2C1[2H] (stereo not drawn) [Example 223, 8-(4-((dimethylamino)methyl)-2-methylphenyl)-5-(((5-fluoro-2,3-dihydrobenzofuran-4-yl-2,3-d2)methyl-d2)amino)imidazo[1,2-c]pyrimidine-2-carbonitrile]	< 0.1	0.1 to 0.5	≤ 0.25
